We go through 14 molecules from US20060142312A1, “C6-aryl and heteroaryl substituted pyrido[2,3-D] pyrimidin-7-ones” (PFIZER INC, priority 2004, published 2006).

Usually melting point stands for the temperature of the solid-liquid transition.

Tested on in the first series: not given
Details: not given
`CC(C)c1ccc(Cc2cc3cnc(Nc4ccc(N5CCNCC5)cc4)nc3n(C3CCCC3)c2=O)cc1` [Example 72, 8-Cyclopentyl-6-(4-isopropyl-benzyl)-2-(4-piperazin-1-yl-phenylamino)-8H-pyrido[2,3-d]pyrimidin-7-one] yielded a melting point of 140 to 145 °C. Take `Cc1ccccc1Cc1cc2cnc(NCCN3CCOCC3)nc2n(C2CCCC2)c1=O` [Example 73, 8-Cyclopentyl-6-(2-methyl-benzyl)-2-(2-morpholin-4-yl-ethylamino)-8H-pyrido[2,3-d]pyrimidin-7-one]: the melting point was 134 to 137 °C. The molecule `Cc1ccccc1Cc1cc2cnc(NCCCN3CCOCC3)nc2n(C2CCCC2)c1=O` [Example 74, 8-Cyclopentyl-6-(2-methyl-benzyl)-2-(3-morpholin-4-yl-propylamino)-8H-pyrido[2,3-d]pyrimidin-7-one] displayed a melting point of 118 to 119 °C.

As to `Cc1ccc(Cc2cc3cnc(NCCN4CCOCC4)nc3n(C3CCCC3)c2=O)cc1` [Example 75, 8-Cyclopentyl-6-(4-methyl-benzyl)-2-(2-morpholin-4-yl-ethylamino)-8H-pyrido[2,3-d]pyrimidin-7-one], the melting point fell in the range of 88 to 91 °C. `Cc1ccc(Cc2cc3cnc(NCCCN4CCOCC4)nc3n(C3CCCC3)c2=O)cc1` [Example 76, 8-Cyclopentyl-6-(4-methyl-benzyl)-2-(3-morpholin-4-yl-propylamino)-8H-pyrido[2,3-d]pyrimidin-7-one] had a melting point of 114 to 116 °C. In turn, `Cc1ccccc1Cc1cc2cnc(NCCCN3CCN(C)CC3)nc2n(C2CCCC2)c1=O` [Example 77, 8-Cyclopentyl-6-(2-methyl-benzyl)-2-[3-(4-methyl-piperazin-1-yl)-propylamino]-8H-pyrido[2,3-d]pyrimidin-7-one] registered a melting point above 45 °C. For the molecule `Cc1ccc(Cc2cc3cnc(NCCCN4CCN(C)CC4)nc3n(C3CCCC3)c2=O)cc1` [Example 78, 8-Cyclopentyl-6-(4-methyl-benzyl)-2-[3-(4-methyl-piperazin-1-yl)-propylamino]-8H-pyrido[2,3-d]pyrimidin-7-one], the melting point was in the range of 123 to 124 °C. As for `CCCN1CCC(Nc2ncc3cc(Cc4nccs4)c(=O)n(C4CCCC4)c3n2)CC1` [Example 86, 8-Cyclopentyl-2-(1-propyl-piperidin-4-ylamino)-6-thiazol-2-ylmethyl-8H-pyrido[2,3-d]pyrimidin-7-one], the melting point is 149 to 152 °C. In turn, `CN(C)C1CCC(Nc2ncc3cc(Cc4nccs4)c(=O)n(C4CCCC4)c3n2)CC1` (centres unmarked) [Example 87, 8-Cyclopentyl-2-(4-dimethylamino-cyclohexylamino)-6-thiazol-2-ylmethyl-8H-pyrido[2,3-d]pyrimidin-7-one] displayed a melting point of 154 to 157 °C. Molecule `CCCN1CCC(Nc2ncc3cc(Cc4ccccn4)c(=O)n(C4CCCC4)c3n2)CC1` [Example 88, 8-Cyclopentyl-2-(1-propyl-piperidin-4-ylamino)-6-pyridin-2-ylmethyl-8H-pyrido[2,3-d]pyrimidin-7-one] returned a melting point of 133 to 134 °C. For `CN(C)CCCCNc1ncc2cc(Cc3ccccn3)c(=O)n(C3CCCC3)c2n1` [Example 89, 8-Cyclopentyl-2-(4-dimethylamino-butylamino)-6-pyridin-2-ylmethyl-8H-pyrido[2,3-d]pyrimidin-7-one], the melting point lay within 105 to 107 °C.

`CN(C)CCCCNc1ncc2cc(Cc3nccs3)c(=O)n(C3CCCC3)c2n1` [Example 90, 8-Cyclopentyl-2-(4-dimethylamino-butylamino)-6-thiazol-2-ylmethyl-8H-pyrido[2,3-d]pyrimidin-7-one] returned a melting point of 122 to 124 °C. On the same count and under the same terms, in the case of `Cc1ccc(Cc2cc3cnc(Nc4ccc(N5CCOC5=O)cc4)nc3n(C3CCCC3)c2=O)cc1` [Example 103, 8-Cyclopentyl-6-(4-methyl-benzyl)-2-[4-(2-oxo-oxazolidin-3-yl)-phenylamino]-8H-pyrido[2,3-d]pyrimidin-7-one] it was 289.2 to 290 °C.

For another series, the system named is neointima formation. The conditions noted are these: in rats; cited from earlier work.
On to `COc1ccc(CNc2nc(N(CCO)CCO)nc3c2ncn3C(C)C)cc1` [CVT-313], for which the “inhibition of neointima formation” value was “greater than 80%”.
